Where only a bound is given, the exact number is not on record here.

In this test the test system is HEK293 cells. Kind of test: HEK293 VLCFA-LPC IC50 determination (13C-labeled C26:0 LPC by UHPLC/MS). To be noted: Homo sapiens, HEK293, HEK293 cells; average of one or more replicates; read-out: Average HEK293 IC50. The test is classed as cell-based, human. The gist of the method: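 Suspension HEK293 cells (final 0.5 million/mL after mixing with equal volume) incubated 48 hours with compound plus 13C-acetate (1.0 mg/mL in added media), shaking at 37° C. Lipids extracted with hexane/isopropanol or methanol, C13:0 LPC standard. UHPLC/MS of 13C-labeled C26:0 LPC (638.500/104.100 m/z); IC50 by four-parameter fit.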
Take `O=C(Nc1cc(F)n(-c2cncc(F)c2)n1)C1(c2ccccc2F)CC1` [Compound 463, N-[5-fluoro-1-(5-fluoro-3-pyridyl)pyrazol-3-yl]-1-(2-fluorophenyl)cyclopropanecarboxamide]: the IC50 was more than 5 µM.
The result for `O=C(Nc1ccn(-c2cncc(F)c2)n1)C1(c2ccccn2)CC1` [Compound 464, N-[1-(5-fluoro-3-pyridyl)pyrazol-3-yl]-1-(2-pyridyl)cyclopropanecarboxamide] reads 0.13 µM.
For `O=C(Nc1ccn(-c2cncc(F)c2)n1)C1(c2cccc(OC(F)(F)F)c2)CC1` [Compound 465], the IC50 stood at 0.024 µM.
In the case of `O=C(Nc1ccn(-c2cncc(F)c2)n1)C1(c2ccc(F)cn2)CC1` [Compound 466, 1-(5-fluoro-2-pyridyl)-N-[1-(5-fluoro-3-pyridyl)pyrazol-3-yl]cyclopropanecarboxamide] it was 0.56 µM; in that of `COc1cc(-n2ccc(NC(=O)C3(c4ccccc4F)CC3)n2)c(F)cn1` [Compound 467, N-[1-(5-fluoro-2-methoxy-4-pyridyl)pyrazol-3-yl]-1-(2-fluorophenyl)cyclopropanecarboxamide], 2.7 µM.
Regarding `COc1cc(-n2ccc(NC(=O)C3(c4ccccc4F)CC3)n2)ccc1F` [Compound 468, N-[1-(4-fluoro-3-methoxy-phenyl)pyrazol-3-yl]-1-(2-fluorophenyl)cyclopropanecarboxamide], the 50% inhibitory concentration (IC50) was more than 5 µM.
The result for `COc1ccncc1-n1ccc(NC(=O)C2(c3ccccc3F)CC2)n1` [Compound 469, 1-(2-fluorophenyl)-N-[1-(4-methoxy-3-pyridyl)pyrazol-3-yl]cyclopropanecarboxamide] reads more than 2 µM.
In the case of `COc1ccc(-n2ccc(NC(=O)C3(c4ccccc4F)CC3)n2)c(F)c1` [Compound 470] it was more than 2 µM; in that of `Cc1ncccc1-n1ccc(NC(=O)C2(c3ccccc3F)CC2)n1` [Compound 471, 1-(2-fluorophenyl)-N-[1-(2-methyl-3-pyridyl)pyrazol-3-yl]cyclopropanecarboxamide], more than 5 µM; in that of `Cc1ccncc1-n1ccc(NC(=O)C2(c3ccccc3F)CC2)n1` [Compound 472, 1-(2-fluorophenyl)-N-[1-(4-methyl-3-pyridyl)pyrazol-3-yl]cyclopropanecarboxamide], 0.056 µM.
In the case of `O=C(Nc1ccn(-c2ccccc2)n1)C1(c2cccs2)CC1` [Compound 474, N-(1-phenylpyrazol-3-yl)-1-(2-thienyl)cyclopropanecarboxamide] it was 0.019 µM.
As to `O=C(Nc1ccn(-c2ccccc2)n1)C1(c2ccc(F)cn2)CC1` [Compound 475, 1-(5-fluoro-2-pyridyl)-N-(1-phenylpyrazol-3-yl)cyclopropanecarboxamide], the 50% inhibitory concentration (IC50) was found to be 0.27 µM.
As for `CC(C)(C(=O)Nc1ccn(-c2ccccc2)n1)c1ccccn1` [Compound 476, 2-methyl-N-(1-phenylpyrazol-3-yl)-2-(2-pyridyl)propanamide], the IC50 came out at 0.53 µM.
Take `O=C(Nc1ccn(-c2ccccc2)n1)C1(c2cnccn2)CC1` [Compound 477, N-(1-phenylpyrazol-3-yl)-1-pyrazin-2-yl-cyclopropanecarboxamide]: the IC50 stood at 1.5 µM.
The result for `COc1cc(-n2ccc(NC(=O)C3(c4cccs4)CC3)n2)ccn1` [Compound 478, N-[1-(2-methoxy-4-pyridyl)pyrazol-3-yl]-1-(2-thienyl)cyclopropanecarboxamide] reads 0.12 µM; that for `O=C(Nc1ccn(-c2ccc(F)c(F)c2)n1)C1(c2cccs2)CC1` [Compound 479, N-[1-(3,4-difluorophenyl)pyrazol-3-yl]-1-(2-thienyl)cyclopropanecarboxamide], 0.19 µM; that for `O=C(Nc1ccn(-c2cc(F)cc(F)c2)n1)C1(c2cccs2)CC1` [Compound 480, N-[1-(3,5-difluorophenyl)pyrazol-3-yl]-1-(2-thienyl)cyclopropanecarboxamide], 0.23 µM.
In the case of `O=C(Nc1ccn(-c2ccc(F)cc2)n1)C1(c2cccs2)CC1` [Compound 481, N-[1-(4-fluorophenyl)pyrazol-3-yl]-1-(2-thienyl)cyclopropanecarboxamide] it was 0.16 µM; in that of `O=C(Nc1ccn(-c2ccncc2)n1)C1(c2cccs2)CC1` [Compound 482, N-[1-(4-pyridyl)pyrazol-3-yl]-1-(2-thienyl)cyclopropanecarboxamide], 0.039 µM; in that of `O=C(Nc1ccn(-c2cncc(F)c2)n1)C1(c2cccs2)CC1` [Compound 483, N-[1-(5-fluoro-3-pyridyl)pyrazol-3-yl]-1-(2-thienyl)cyclopropanecarboxamide], less than 0.02 µM.
`O=C(Nc1ccn(-c2cncc(OC(F)F)c2)n1)C1(c2cccs2)CC1` [Compound 484, N-[1-[5-(difluoromethoxy)-3-pyridyl]pyrazol-3-yl]-1-(2-thienyl)cyclopropanecarboxamide]: the half-inhibitory concentration (IC50) was more than 5 µM.
The result for `COc1cc(-n2ccc(NC(=O)C3(c4ccc(F)cn4)CC3)n2)ccn1` [Compound 485, 1-(5-fluoro-2-pyridyl)-N-[1-(2-methoxy-4-pyridyl)pyrazol-3-yl]cyclopropanecarboxamide] reads 1.5 µM; that for `O=C(Nc1ccn(-c2cc(F)cc(F)c2)n1)C1(c2ccc(F)cn2)CC1` [Compound 487, N-[1-(3,5-difluorophenyl)pyrazol-3-yl]-1-(5-fluoro-2-pyridyl)cyclopropanecarboxamide], 1.2 µM.
On to `O=C(Nc1ccn(-c2ccc(F)cc2)n1)C1(c2ccc(F)cn2)CC1` [Compound 488, N-[1-(4-fluorophenyl)pyrazol-3-yl]-1-(5-fluoro-2-pyridyl)cyclopropanecarboxamide], for which the IC50 stood at 0.51 µM.
For the molecule `O=C(Nc1ccn(-c2ccncc2)n1)C1(c2ccc(F)cn2)CC1` [Compound 489, 1-(5-fluoro-2-pyridyl)-N-[1-(4-pyridyl)pyrazol-3-yl]cyclopropanecarboxamide], the IC50 is 1.5 µM.
In the case of `O=C(Nc1ccn(-c2cncc(OC(F)F)c2)n1)C1(c2ccc(F)cn2)CC1` [Compound 490, N-[1-[5-(difluoromethoxy)-3-pyridyl]pyrazol-3-yl]-1-(5-fluoro-2-pyridyl)cyclopropanecarboxamide] it was more than 5 µM; in that of `COc1cc(-n2ccc(NC(=O)C3(c4cnccn4)CC3)n2)ccn1` [Compound 491, N-[1-(2-methoxy-4-pyridyl)pyrazol-3-yl]-1-pyrazin-2-yl-cyclopropanecarboxamide], more than 5 µM.
The result for `O=C(Nc1ccn(-c2ccc(F)c(F)c2)n1)C1(c2cnccn2)CC1` [Compound 492, N-[1-(3,4-difluorophenyl)pyrazol-3-yl]-1-pyrazin-2-yl-cyclopropanecarboxamide] reads more than 5 µM; that for `O=C(Nc1ccn(-c2cc(F)cc(F)c2)n1)C1(c2cnccn2)CC1` [Compound 493, N-[1-(3,5-difluorophenyl)pyrazol-3-yl]-1-pyrazin-2-yl-cyclopropanecarboxamide], more than 5 µM.
The result for `O=C(Nc1ccn(-c2ccc(F)cc2)n1)C1(c2cnccn2)CC1` [Compound 494, N-[1-(4-fluorophenyl)pyrazol-3-yl]-1-pyrazin-2-yl-cyclopropanecarboxamide] reads more than 5 µM; that for `O=C(Nc1ccn(-c2ccncc2)n1)C1(c2cnccn2)CC1` [Compound 495, 1-pyrazin-2-yl-N-[1-(4-pyridyl)pyrazol-3-yl]cyclopropanecarboxamide], more than 5 µM.
`O=C(Nc1ccn(-c2cncc(OC(F)F)c2)n1)C1(c2cnccn2)CC1` [Compound 496, N-[1-[5-(difluoromethoxy)-3-pyridyl]pyrazol-3-yl]-1-pyrazin-2-yl-cyclopropanecarboxamide]: the IC50 was more than 5 µM.
Turning to `Cc1cnc(C2(C(=O)Nc3ccn(-c4cncc(F)c4)n3)CC2)c(F)c1` [Compound 497, 1-(3-fluoro-5-methyl-2-pyridyl)-N-[1-(5-fluoro-3-pyridyl)pyrazol-3-yl]cyclopropanecarboxamide], the IC50 is 2.1 µM.
In the case of `O=C(Nc1ccn(-c2cncc(F)c2)n1)C1(c2ncc(Cl)cc2F)CC1` [Compound 498, 1-(5-chloro-3-fluoropyridin-2-yl)-N-(1-(5-fluoropyridin-3-yl)-1H-pyrazol-3-yl)cyclopropane-1-carboxamide] it was 0.47 µM.
In the case of `COc1ccnc(-n2ccc(NC(=O)C3(c4ccccc4F)CC3)n2)c1` [Compound 501, 1-(2-fluorophenyl)-N-[1-(4-methoxy-2-pyridyl)pyrazol-3-yl]cyclopropanecarboxamide] it was more than 5 µM.
In the case of `COc1cccc(-n2ccc(NC(=O)C3(c4ccccc4F)CC3)n2)n1` [Compound 502, 1-(2-fluorophenyl)-N-[1-(6-methoxy-2-pyridyl)pyrazol-3-yl]cyclopropanecarboxamide] it was more than 5 µM; in that of `CC1CC1(C(=O)Nc1ccn(-c2cncc(F)c2)n1)c1ncccc1F` (stereo not shown) [Compound 503, 1-(3-fluoro-2-pyridyI)-N-[1-(5-fluoro-3-pyridyl)pyrazol-3-yl]-2-methyl-cyclopropanecarboxamide], 0.11 µM.
As for `CC1CC1(C(=O)Nc1ccn(-c2cncc(Cl)c2)n1)c1ncccc1F` (stereo not shown) [Compound 504, N-[1-(5-chloro-3-pyridyl)pyrazol-3-yl]-1-(3-fluoro-2-pyridyl)-2-methyl-cyclopropanecarboxamide], the IC50 turned out to be 0.12 µM.
In the case of `CC1CC1(C(=O)Nc1ccn(-c2ccc(F)cc2)n1)c1ncccc1F` (stereo not shown) [Compound 505, N-[1-(4-fluorophenyl)pyrazol-3-yl]-1-(3-fluoro-2-pyridyl)-2-methyl-cyclopropanecarboxamide] it was 0.11 µM; in that of `CC1CC1(C(=O)Nc1ccn(-c2ccc(F)c(F)c2)n1)c1ncccc1F` (stereo not shown) [Compound 506, N-[1-(3,4-difluorophenyl)pyrazol-3-yl]-1-(3-fluoro-2-pyridyl)-2-methyl-cyclopropanecarboxamide], 0.22 µM.

Values taken from patent US20180251431A1 (VERTEX PHARMACEUTICALS INCORPORATED, priority 2016, published 2018).
